Consider 12 molecules from ChEMBL document CHEMBL5512632, “Unlocking the potential of 1,4-naphthoquinones: A comprehensive review of their anticancer properties” (Eur J Med Chem, 2024).

One data set relates to C6. The data set is described as follows: Antiproliferative activity against rat C6 cells assessed as inhibition of cell growth incubated for 72 hrs by Sulforhodamine B assay. The class given is functional, cell-based. Conditions: C6, 72 h. Background: The SRB assay estimates cell density from bound dye.
In the next data set the test system is B16-F10. The data set is described as follows: Antiproliferative activity against mouse B16-F10 cells assessed as inhibition of cell growth incubated for 72 hrs by Sulforhodamine B assay. The following applies: B16-F10, 72 h. The format is functional, cell-based.
In data set [1] the test system is A549. The data set is described as follows: Antiproliferative activity against human A549 cells assessed as inhibition of cell growth incubated for 72 hrs by Sulforhodamine B assay. The following applies: A549, 72 h. The format is functional, cell-based.
Another data set concerns SK-BR-3. Nature of the data set: Antiproliferative activity against human SK-BR-3 cells assessed as inhibition of cell growth incubated for 72 hrs by Sulforhodamine B assay. The format is functional, cell-based. Conditions: SK-BR-3, 72 h.
Data set [2] concerns MCF7. The data set is described as follows: Antiproliferative activity against human MCF7 cells assessed as inhibition of cell growth incubated for 72 hrs by Sulforhodamine B assay. The class given is functional, cell-based. The following applies: MCF7, 72 h.
For data set [3], the system named is MDA-MB-231. The data set is described as follows: Antiproliferative activity against human MDA-MB-231 cells assessed as inhibition of cell growth incubated for 72 hrs by Sulforhodamine B assay. The format is functional, cell-based. The following applies: MDA-MB-231, 72 h.
The nature of data set [4]: Antiproliferative activity against human HGF cells assessed as inhibition of cell growth incubated for 72 hrs by Sulforhodamine B assay. The class given is toxicity, cell-based.
Data set [5] deals with A549. Nature of the data set: Cytotoxicity against human A549 cells assessed as inhibition of cell growth incubated for 48 hrs by MTT assay. The format is functional, cell-based. The following applies: A549, 48 h. On the technique in general: Tetrazolium dyes change colour on reduction, which living cells bring about.
A further data set relates to DU-145. Nature of the data set: Cytotoxicity against human DU-145 cells assessed as inhibition of cell growth incubated for 48 hrs by MTT assay. The format is functional, cell-based. Conditions: DU-145, 48 h.
In data set [6] the test system is HeLa. Nature of the data set: Cytotoxicity against human HeLa cells assessed as inhibition of cell growth incubated for 48 hrs by MTT assay. The format is functional, cell-based.
Data set [7] has as its system MCF7. Nature of the data set: Cytotoxicity against human MCF7 cells assessed as inhibition of cell growth incubated for 48 hrs by MTT assay. The following applies: MCF7, 48 h. The format is functional, cell-based.
The next data set concerns B16. The data set is described as follows: Cytotoxicity against mouse B16 cells assessed as inhibition of cell growth incubated for 48 hrs by MTT assay. The class given is functional, cell-based. The following applies: B16, 48 h.
A further data set deals with K562. The data set is described as follows: Antiproliferative activity against human K562 cells assessed as inhibition of cell growth incubated for 72 hrs by MTT assay. The format is functional, cell-based. The following applies: K562, 72 h.
A further data set concerns COLO-829. The data set is described as follows: Antiproliferative activity against human COLO-829 cells assessed as inhibition of cell growth incubated for 72 hrs by WST-1 assay. The format is functional, cell-based. Conditions: COLO-829, 72 h.
In data set [8] the test system is MDA-MB-231. Nature of the data set: Antiproliferative activity against human MDA-MB-231 cells assessed as inhibition of cell growth incubated for 72 hrs by WST-1 assay. The class given is functional, cell-based. Conditions: MDA-MB-231, 72 h.
The test system of the next data set is T47D. Nature of the data set: Antiproliferative activity against human T47D cells assessed as inhibition of cell growth incubated for 72 hrs by WST-1 assay. The class given is functional, cell-based.
Data set [9] concerns MCF7. The data set is described as follows: Antiproliferative activity against human MCF7 cells assessed as inhibition of cell growth incubated for 72 hrs by WST-1 assay. The format is functional, cell-based. The following applies: MCF7, 72 h.
The test system of another data set is Caco-2. Nature of the data set: Antiproliferative activity against human Caco-2 cells assessed as inhibition of cell growth incubated for 72 hrs by WST-1 assay. The class given is functional, cell-based. Conditions: Caco-2, 72 h.
In data set [10] the test system is A549. The data set is described as follows: Antiproliferative activity against human A549 cells assessed as inhibition of cell growth incubated for 72 hrs by WST-1 assay. Conditions: A549, 72 h. The format is functional, cell-based.
In the next data set the test system is HCT-116. The data set is described as follows: Antiproliferative activity against human HCT-116 cells assessed as inhibition of cell growth by MTT assay. The class given is functional, cell-based.
The test system of data set [11] is A549. The data set is described as follows: Antiproliferative activity against human A549 cells assessed as inhibition of cell growth incubated for 24 hrs by trypan blue exclusion assay. Conditions: A549, 24 h. The class given is functional, cell-based.
The subject of another data set is TK-10. Nature of the data set: Growth inhibition of human TK-10 cells by Sulforhodamine B assay. The class given is functional.
Another data set deals with UACC-62. The data set is described as follows: Growth inhibition of human UACC-62 cells by Sulforhodamine B assay. The class given is functional.
The test system of data set [12] is MCF7. The data set is described as follows: Growth inhibition of human MCF7 cells by Sulforhodamine B assay. The class given is functional.
Another data set concerns PC-3. The data set is described as follows: Growth inhibition of human PC-3 cells by Sulforhodamine B assay. The class given is functional.
For the next data set, the system named is NCI-H460. The data set is described as follows: Antiproliferative activity against human NCI-H460 cells assessed as inhibition of cell growth incubated for 24 hrs by MTT assay. The format is functional, cell-based. The following applies: NCI-H460, 24 h.
The subject of data set [13] is MDA-MB-231. The data set is described as follows: Antiproliferative activity against human MDA-MB-231 cells assessed as inhibition of cell growth incubated for 24 hrs by MTT assay. The following applies: MDA-MB-231, 24 h. The format is functional, cell-based.
Another data set concerns A2780. The data set is described as follows: Antiproliferative activity against human A2780 cells assessed as inhibition of cell growth incubated for 24 hrs by MTT assay. The format is functional, cell-based. Conditions: A2780, 24 h.
Data set [14] relates to MCF7. The data set is described as follows: Antiproliferative activity against human MCF7 cells assessed as inhibition of cell growth incubated for 48 hrs by MTT reagent based spectrophotometric analysis. The format is functional. The following applies: MCF7, 48 h.
For a further data set, the system named is HepG2. The data set is described as follows: Antiproliferative activity against human HepG2 cells assessed as inhibition of cell growth incubated for 48 hrs by MTT reagent based spectrophotometric analysis. The class given is functional. The following applies: HepG2, 48 h.
Data set [15] has as its system HeLa. The data set is described as follows: Antiproliferative activity against human HeLa cells assessed as inhibition of cell growth incubated for 24 hrs by sulforhodamine B assay. The format is functional, cell-based.
The test system of a further data set is HT-29. Nature of the data set: Antiproliferative activity against human HT-29 cells assessed as reduction in cell viability incubated for 24 hrs by MTT assay. The following applies: HT-29, 24 h. The class given is functional, cell-based.
The subject of data set [16] is MCF7. The data set is described as follows: Growth inhibition of human MCF7 cells incubated for 48 hrs by Sulforhodamine B reagent based spectrophotometric assay. The class given is functional.
Data set [17] deals with MDA-MB-231. Nature of the data set: Growth inhibition of human MDA-MB-231 cells incubated for 48 hrs by Sulforhodamine B reagent based spectrophotometric assay. The format is functional.

The term IC50 denotes the concentration that gives 50% inhibition. Usually GI50 stands for the concentration that inhibits growth by half. The low end stands for greater sensitivity of the cells, the high end for lower sensitivity of the cells.

SMILES strings stand for the structures.

Consider `CC(=O)OC[C@H]1O[C@H](n2cc(COC3=CC(=O)c4ccccc4C3=O)nn2)[C@H](OC(C)=O)[C@H](OC(C)=O)[C@H]1OC(C)=O`, for which the IC50 in the data set on C6 worked out at 14.7 µM; in the data set on B16-F10 it was 5.3 µM; with A549 [1], 8.5 µM; with SK-BR-3, 0.78 µM; in the data set on MCF7 [2] it was 3.33 µM; in the data set with MDA-MB-231 [3], 14 µM. Moreover, the half-inhibitory concentration (IC50) at 72 h in data set [4] was 17.7 µM.

Turning to `CCc1ccc(-c2cn(CCNC3=C(C)C(=O)c4ccccc4C3=O)nn2)cc1`, the half-inhibitory concentration (IC50) in the data set on A549 [5] amounted to 9.19 µM; in the data set on DU-145, 8.02 µM; with HeLa [6] it was 26.2 µM; in the data set on MCF7 [7], 8.73 µM; in the data set on B16, 20.2 µM.

Turning to `O=C1C=C(Nc2ccc(S(=O)(=O)c3ccc(NC(=S)N4CCCCC4)cc3)cc2)C(=O)c2ccccc21`, in the data set with K562, the IC50 was found to be 5.8 µM.

As for `C=C(C)[C@@H]1CC[C@]2(COC(=O)c3cn(CCCOC4=C(Cl)C(=O)c5ccccc5C4=O)nn3)CC[C@]3(C)[C@H](CC[C@@H]4[C@@]5(C)CC[C@H](O)C(C)(C)[C@@H]5CC[C@]43C)[C@@H]12`, the IC50 in the data set with COLO-829 was found to be 12.5 µM; with MDA-MB-231 [8], 10 µM; with T47D, 2.41 µM; with MCF7 [9], 11.7 µM; in the data set on Caco-2, 12.2 µM; in the data set with A549 [10], 1.86 µM.

Turning to `O=C1C=C(Sc2ccc([N+](=O)[O-])cc2)C(=O)c2ccccc21`, in the data set on HCT-116, the IC50 was determined as 5.32 µM.

As for `CCCC[S+]([O-])C1=CC(=O)c2ccccc2C1=O` (centres undefined), in the data set on A549 [11], the concentration for half-maximal inhibition (IC50) turned out to be 2.08 µM.

For the molecule `O=C1C(Sc2ccc3ccccc3c2)=C(Sc2ccc3ccccc3c2)C(=O)c2ccccc21`, the GI50 in the data set with TK-10 was 8.26 µM; in the data set with UACC-62, 9.92 µM; in the data set with MCF7 [12], 7.75 µM; in the data set on PC-3, 7.21 µM.

`O=C1C=C(SCCO)C(=O)c2ccccc21`: the figures for the IC50 with NCI-H460, in the data set on MDA-MB-231 [13] and in the data set on A2780 were 4.24 µM, 16 µM and 3.69 µM, respectively.

In the case of `O=C1C(Cl)=C(NNc2nnc3n2N=C(c2ccc(Cl)cc2)CS3)C(=O)c2ccccc21`, the IC50 in the data set with MCF7 [14] turned out to be 8.49 µM; with HepG2, 0.07 µM.

Turning to `O=C1C(Cl)=C(Nc2ccc(O)cc2)C(=O)c2ccccc21`, the IC50 in the data set with HeLa [15] was found to be 3.2 µM.

With `CCOC(=O)c1cn(C2=CC(=O)c3ccccc3C2=O)nn1`, the IC50 in the data set on HT-29 came out at 3.2 µM.

For the molecule `O=C1C(Cl)=C(N2CCN(Cc3ccc4c(c3)OCO4)CC2)C(=O)c2ccccc21`, the GI50 is 5.8 µM in the data set with MCF7 [16] and 5 µM with MDA-MB-231 [17].
